Read-outs that look alike come from different tables or passages of the source.

Four compounds from article PMC7827406, “Structure–Activity Relationship (SAR) Study of Spautin-1 to Entail the Discovery of Novel NEK4 Inhibitors” (International Journal of Molecular Sciences, 2021) can be followed below.

Assay in all cases: biochemical
What all share (design): Eurofins KinaseProfiler full panel at Km ATP, residual kinase activity (%) relative to DMSO

In one assay the target is T1, cKit(h) (Homo sapiens, UniProt P10721).
T1 construct: gene KIT
T1 sequence (P10721 whole entry): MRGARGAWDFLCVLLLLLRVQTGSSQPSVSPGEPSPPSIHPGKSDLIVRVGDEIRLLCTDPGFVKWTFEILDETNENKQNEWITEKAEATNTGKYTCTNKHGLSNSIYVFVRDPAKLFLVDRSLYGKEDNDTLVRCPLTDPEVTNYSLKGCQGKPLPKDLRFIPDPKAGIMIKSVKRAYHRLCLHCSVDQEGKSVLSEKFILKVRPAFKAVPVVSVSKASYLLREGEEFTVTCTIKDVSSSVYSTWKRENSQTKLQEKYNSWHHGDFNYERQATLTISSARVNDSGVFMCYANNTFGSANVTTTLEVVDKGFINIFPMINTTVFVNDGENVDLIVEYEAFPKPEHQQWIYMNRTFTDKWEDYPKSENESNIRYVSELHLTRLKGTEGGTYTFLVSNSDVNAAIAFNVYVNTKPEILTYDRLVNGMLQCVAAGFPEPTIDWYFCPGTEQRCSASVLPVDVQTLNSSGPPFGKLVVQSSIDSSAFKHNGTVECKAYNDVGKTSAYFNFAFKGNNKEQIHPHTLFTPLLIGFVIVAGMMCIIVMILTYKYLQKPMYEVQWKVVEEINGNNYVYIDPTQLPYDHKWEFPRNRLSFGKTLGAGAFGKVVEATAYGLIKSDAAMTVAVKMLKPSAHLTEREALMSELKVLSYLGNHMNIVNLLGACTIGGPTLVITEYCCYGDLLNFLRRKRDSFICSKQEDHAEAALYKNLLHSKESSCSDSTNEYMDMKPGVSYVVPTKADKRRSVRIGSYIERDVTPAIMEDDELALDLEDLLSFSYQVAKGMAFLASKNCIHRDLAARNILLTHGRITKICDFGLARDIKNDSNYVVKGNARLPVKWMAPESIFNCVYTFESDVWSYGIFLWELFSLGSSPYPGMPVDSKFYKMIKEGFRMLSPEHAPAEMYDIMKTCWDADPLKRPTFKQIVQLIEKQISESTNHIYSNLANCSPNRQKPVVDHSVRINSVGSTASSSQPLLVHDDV
The gist of the method: (§1)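 Radiometric kinase activity assays were run with ATP at Km and compounds at 10 µM, and remaining activity (%) was reported. A separate competitive binding screen measured DNA-tagged kinase displaced from immobilized active-site ligands by qPCR, giving percent kinase still bound at 10 µM compound in DMSO.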

In the next assay the target is mTOR/FKBP12(h) (Homo sapiens, UniProt P42345). Put shortly:
as §1

The next assay has as its target T2, Tie2(Y897S)(h) (Homo sapiens, UniProt Q02763, Y897S).
T2 construct: gene TEK
Put shortly:
as §1

The target in a further assay is T3, MSK1(h) (Homo sapiens, UniProt O75582).
T3 construct: gene RPS6KA5
T3 sequence (O75582 whole entry): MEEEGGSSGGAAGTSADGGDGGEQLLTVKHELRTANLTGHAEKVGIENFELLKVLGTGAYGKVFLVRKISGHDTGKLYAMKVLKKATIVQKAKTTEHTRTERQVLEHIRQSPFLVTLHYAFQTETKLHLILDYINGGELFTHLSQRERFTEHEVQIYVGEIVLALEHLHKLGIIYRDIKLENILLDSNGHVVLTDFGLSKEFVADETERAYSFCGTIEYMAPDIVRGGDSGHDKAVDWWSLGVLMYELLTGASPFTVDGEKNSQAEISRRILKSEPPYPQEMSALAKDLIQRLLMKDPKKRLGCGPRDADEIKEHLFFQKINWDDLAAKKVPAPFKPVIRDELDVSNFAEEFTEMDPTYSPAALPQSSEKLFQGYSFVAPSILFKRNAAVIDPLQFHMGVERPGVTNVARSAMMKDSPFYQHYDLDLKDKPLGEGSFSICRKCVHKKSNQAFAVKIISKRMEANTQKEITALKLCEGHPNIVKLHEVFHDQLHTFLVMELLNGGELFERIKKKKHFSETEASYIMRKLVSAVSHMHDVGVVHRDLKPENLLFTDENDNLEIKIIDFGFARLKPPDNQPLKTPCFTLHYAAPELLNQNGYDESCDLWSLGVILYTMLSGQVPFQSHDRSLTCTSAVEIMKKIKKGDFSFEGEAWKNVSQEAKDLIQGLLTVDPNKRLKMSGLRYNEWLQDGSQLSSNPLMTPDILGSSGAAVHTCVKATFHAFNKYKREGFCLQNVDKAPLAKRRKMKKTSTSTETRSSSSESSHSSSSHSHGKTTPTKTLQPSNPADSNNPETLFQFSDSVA
Put shortly:
as §1

The next assay has as its target T4, ALK1(h) (Homo sapiens, UniProt P37023).
T4 construct: gene ACVRL1
The gist of the method:
as §1

The next assay has as its target T5, PRK1(h) (Homo sapiens, UniProt Q16512).
T5 construct: gene PKN1
The gist of the method:
as §1

Another assay addresses T6, CaMKI(h) (Homo sapiens, UniProt Q14012).
T6 construct: gene CAMK1
Put shortly: as §1

Another assay has as its target T7, ZAK(h) (Homo sapiens, UniProt Q9NYL2).
T7 construct: gene MAP3K20
The gist of the method:
as §1

A further assay concerns the target T8, DDR2(h) (Homo sapiens, UniProt Q16832).
T8 sequence (Q16832 1-855): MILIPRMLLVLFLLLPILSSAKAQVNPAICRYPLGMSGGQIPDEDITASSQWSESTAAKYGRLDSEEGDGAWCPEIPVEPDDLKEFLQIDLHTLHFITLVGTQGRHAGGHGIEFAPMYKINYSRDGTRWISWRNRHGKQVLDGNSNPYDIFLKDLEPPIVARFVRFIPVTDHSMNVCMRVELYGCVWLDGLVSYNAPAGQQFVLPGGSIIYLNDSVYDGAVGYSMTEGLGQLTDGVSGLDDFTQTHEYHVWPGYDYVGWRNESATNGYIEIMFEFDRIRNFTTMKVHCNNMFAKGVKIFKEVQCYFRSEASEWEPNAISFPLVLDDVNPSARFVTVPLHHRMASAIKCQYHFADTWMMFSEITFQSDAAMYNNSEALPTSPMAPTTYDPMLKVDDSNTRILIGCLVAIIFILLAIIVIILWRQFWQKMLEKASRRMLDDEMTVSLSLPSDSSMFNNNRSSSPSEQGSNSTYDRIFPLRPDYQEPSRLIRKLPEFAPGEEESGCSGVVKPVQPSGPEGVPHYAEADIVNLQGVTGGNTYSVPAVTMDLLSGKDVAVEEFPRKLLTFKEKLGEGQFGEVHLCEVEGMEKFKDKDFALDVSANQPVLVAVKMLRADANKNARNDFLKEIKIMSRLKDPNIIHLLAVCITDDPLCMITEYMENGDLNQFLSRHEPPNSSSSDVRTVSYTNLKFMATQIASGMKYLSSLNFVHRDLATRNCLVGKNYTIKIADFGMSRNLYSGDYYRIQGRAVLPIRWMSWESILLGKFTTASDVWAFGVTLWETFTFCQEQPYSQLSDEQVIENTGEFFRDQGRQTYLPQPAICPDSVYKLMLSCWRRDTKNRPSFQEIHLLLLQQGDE
The gist of the method: as §1

The mark [1] stands for this setting: read-out: Residual activity (%) 5at.
Where [2] appears, read: read-out: Residual activity (%) 5ay.
Setting [3] is: read-out: Residual activity (%) 5as.
Where [4] appears, read: read-out: Residual activity (%) Spautin-1 5aa.

T7 sequence (Q9NYL2 whole entry): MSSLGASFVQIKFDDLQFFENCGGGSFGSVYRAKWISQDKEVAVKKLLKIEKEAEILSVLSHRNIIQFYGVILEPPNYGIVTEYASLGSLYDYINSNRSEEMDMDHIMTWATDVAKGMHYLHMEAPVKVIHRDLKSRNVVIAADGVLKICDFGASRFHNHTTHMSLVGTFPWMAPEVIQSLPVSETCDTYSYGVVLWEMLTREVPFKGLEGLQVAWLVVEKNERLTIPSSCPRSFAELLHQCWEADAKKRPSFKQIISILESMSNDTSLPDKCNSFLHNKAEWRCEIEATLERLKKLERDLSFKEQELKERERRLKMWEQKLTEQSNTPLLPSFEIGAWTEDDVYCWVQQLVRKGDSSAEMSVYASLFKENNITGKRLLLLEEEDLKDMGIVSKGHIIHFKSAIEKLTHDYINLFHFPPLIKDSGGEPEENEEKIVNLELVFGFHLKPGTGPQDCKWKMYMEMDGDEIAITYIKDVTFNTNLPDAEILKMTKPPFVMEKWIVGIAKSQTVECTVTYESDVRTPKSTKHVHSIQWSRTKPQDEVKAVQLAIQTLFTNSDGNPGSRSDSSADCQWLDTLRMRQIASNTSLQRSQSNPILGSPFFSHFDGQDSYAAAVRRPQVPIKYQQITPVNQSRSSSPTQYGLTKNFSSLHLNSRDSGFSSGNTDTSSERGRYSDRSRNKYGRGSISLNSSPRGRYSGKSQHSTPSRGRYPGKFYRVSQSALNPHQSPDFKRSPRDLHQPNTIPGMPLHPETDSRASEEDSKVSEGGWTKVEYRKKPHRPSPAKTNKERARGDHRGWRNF
T2 sequence (Q02763 whole entry Y897S): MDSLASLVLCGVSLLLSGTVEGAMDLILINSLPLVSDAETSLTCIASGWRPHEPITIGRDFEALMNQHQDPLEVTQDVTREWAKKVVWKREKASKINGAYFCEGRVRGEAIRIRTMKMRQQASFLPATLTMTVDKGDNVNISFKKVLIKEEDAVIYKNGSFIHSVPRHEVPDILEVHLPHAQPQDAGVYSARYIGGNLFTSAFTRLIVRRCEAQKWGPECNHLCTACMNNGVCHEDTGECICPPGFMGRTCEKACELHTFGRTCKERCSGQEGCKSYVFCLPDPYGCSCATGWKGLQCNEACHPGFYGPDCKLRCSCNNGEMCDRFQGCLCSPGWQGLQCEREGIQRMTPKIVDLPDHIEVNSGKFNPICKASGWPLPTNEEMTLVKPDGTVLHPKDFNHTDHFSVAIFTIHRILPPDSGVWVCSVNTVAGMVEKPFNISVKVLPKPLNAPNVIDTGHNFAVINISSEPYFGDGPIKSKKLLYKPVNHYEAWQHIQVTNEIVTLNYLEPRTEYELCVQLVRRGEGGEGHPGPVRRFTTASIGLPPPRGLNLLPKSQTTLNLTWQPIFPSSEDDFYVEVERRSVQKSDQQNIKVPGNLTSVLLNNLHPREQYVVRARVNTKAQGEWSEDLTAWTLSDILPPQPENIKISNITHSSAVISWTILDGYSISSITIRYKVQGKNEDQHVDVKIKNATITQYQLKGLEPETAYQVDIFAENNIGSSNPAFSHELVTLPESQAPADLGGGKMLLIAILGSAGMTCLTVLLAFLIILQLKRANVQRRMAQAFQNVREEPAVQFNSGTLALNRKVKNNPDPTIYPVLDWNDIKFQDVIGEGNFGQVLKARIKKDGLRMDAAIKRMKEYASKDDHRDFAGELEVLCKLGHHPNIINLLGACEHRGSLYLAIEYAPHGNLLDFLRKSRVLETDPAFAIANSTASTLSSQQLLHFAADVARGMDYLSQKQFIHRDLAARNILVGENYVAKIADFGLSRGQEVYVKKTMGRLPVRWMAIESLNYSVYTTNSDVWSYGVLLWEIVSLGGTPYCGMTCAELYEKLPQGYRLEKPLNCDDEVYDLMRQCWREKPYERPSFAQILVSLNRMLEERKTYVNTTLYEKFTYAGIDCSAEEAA
T5 sequence (Q16512 whole entry): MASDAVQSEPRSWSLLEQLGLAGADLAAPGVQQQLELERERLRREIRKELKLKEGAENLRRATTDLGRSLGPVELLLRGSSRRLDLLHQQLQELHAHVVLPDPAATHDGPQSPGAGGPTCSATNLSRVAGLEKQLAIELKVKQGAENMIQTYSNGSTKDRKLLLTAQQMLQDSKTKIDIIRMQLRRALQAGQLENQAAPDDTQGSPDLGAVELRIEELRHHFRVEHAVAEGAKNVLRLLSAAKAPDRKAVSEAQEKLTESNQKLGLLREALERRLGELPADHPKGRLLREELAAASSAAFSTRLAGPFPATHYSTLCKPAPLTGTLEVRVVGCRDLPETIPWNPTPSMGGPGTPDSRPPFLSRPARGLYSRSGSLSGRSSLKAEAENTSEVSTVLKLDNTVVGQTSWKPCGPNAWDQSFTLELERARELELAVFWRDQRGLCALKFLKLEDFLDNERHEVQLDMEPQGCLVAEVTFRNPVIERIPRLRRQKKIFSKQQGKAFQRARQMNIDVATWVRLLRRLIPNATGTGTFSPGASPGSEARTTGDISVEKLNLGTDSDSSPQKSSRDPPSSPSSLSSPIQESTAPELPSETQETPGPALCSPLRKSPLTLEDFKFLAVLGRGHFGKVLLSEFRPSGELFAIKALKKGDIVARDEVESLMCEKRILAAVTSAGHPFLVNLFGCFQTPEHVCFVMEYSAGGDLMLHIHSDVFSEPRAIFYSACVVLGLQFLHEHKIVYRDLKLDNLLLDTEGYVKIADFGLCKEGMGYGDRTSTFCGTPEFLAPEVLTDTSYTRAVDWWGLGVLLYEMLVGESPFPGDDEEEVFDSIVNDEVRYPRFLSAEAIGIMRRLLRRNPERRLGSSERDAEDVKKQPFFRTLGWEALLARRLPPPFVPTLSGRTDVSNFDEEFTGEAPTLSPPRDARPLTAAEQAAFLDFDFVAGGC
T6 sequence (Q14012 whole entry): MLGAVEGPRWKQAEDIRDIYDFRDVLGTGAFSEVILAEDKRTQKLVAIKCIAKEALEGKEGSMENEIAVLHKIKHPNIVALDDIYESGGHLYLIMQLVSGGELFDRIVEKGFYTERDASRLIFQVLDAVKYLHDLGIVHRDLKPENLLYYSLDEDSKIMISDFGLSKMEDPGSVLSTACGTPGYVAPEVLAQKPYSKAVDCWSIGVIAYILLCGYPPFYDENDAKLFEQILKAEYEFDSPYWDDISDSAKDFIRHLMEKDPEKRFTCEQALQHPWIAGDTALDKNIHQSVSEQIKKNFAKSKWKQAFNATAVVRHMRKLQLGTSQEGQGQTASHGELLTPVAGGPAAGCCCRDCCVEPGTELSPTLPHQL

As to `Fc1ccc2ncnc(NCCc3ccc(Cl)cc3)c2c1` [5at, N-[2-(4-Chlorophenyl)Ethyl]-6-Fluoro-4-Quinazolinamine], the remaining activity at 10 µM was 71% on cKit(h) (setting [1]); 94% at mTOR/FKBP12(h) (setting [1]); 85% on Tie2(Y897S)(h) (setting [1]); 79% at MSK1(h) (setting [1]); 93% on ALK1(h) (setting [1]); 80% at PRK1(h) (setting [1]). The remaining activity at 10 µM on CaMKI(h) (setting [1]) was 104%; at ZAK(h) (setting [1]), 72%; at DDR2(h) (setting [1]) it was 82%.

With `COc1ccc2ncnc(Nc3cccc(F)c3)c2c1` [5ay, N-(3-Fluorophenyl)-6-Methoxy-4-Quinazolinamine], the remaining activity at 10 µM was found to be 83% at cKit(h) (setting [2]); 88% on mTOR/FKBP12(h) (setting [2]); 78% on Tie2(Y897S)(h) (setting [2]); 74% on MSK1(h) (setting [2]); 96% at ALK1(h) (setting [2]); 77% on PRK1(h) (setting [2]). The remaining activity at 10 µM on CaMKI(h) (setting [2]) worked out at 93%; on ZAK(h) (setting [2]), 61%; on DDR2(h) (setting [2]) it was 84%.

Regarding `Fc1ccc(CCNc2ncnc3ccc(F)cc23)cc1` [5as, 6-Fluoro-N-[2-(4-Fluorophenyl)Ethyl]-4-Quinazolinamine], the remaining activity at 10 µM amounted to 78% at cKit(h) (setting [3]); 89% on mTOR/FKBP12(h) (setting [3]); 94% at Tie2(Y897S)(h) (setting [3]); 70% on MSK1(h) (setting [3]); 85% at ALK1(h) (setting [3]); 72% on PRK1(h) (setting [3]). In addition, the remaining activity at 10 µM was 60% at CaMKI(h) (setting [3]), 61% at ZAK(h) (setting [3]) and 80% at DDR2(h) (setting [3]).

`Fc1ccc(CNc2ncnc3ccc(F)cc23)cc1` [5aa, 6-Fluoro-N-(4-fluorobenzyl)-4-Quinazolinamine]: the remaining activity at 10 µM at cKit(h) (setting [4]) turned out to be 93%; at mTOR/FKBP12(h) (setting [4]), 100%; at Tie2(Y897S)(h) (setting [4]) it was 88%; at MSK1(h) (setting [4]) it was 90%; at ALK1(h) (setting [4]), 104%; on PRK1(h) (setting [4]), 89%. For the same compound, the remaining activity at 10 µM on CaMKI(h) (setting [4]) was 90%; at ZAK(h) (setting [4]) it was 70%; on DDR2(h) (setting [4]) it was 87%.
